From patent US20060008574A1, “Galactosyl isomalt, method for production and use thereof” (priority 2002, published 2006)

Tested on: B. infantis DSM 20223
Assay: Fermentation by human bifidobacteria
Assay type: cell-based
Design: key: −: no decomposition; +: decomposition and metabolization of galactose from β-1,3-galactosyl isomalt; ++: decomposition and metabolization of galactose and glucose from β-1,3-galactosyl isomalt; +++: complete decomposition of β-1,3-galcatosyl isomalt
Conditions: medium 2, 48 h
Experimental: To investigate the prebiotic and bifidogenic properties of galactosyl isomalt, the growth of various human bifidobacteria was investigated on this substrate in vitro. An anaerobic medium of the following composition was used:
22 strains of human bifidobacteria were first precultured in “Hungate” test tubes on the above medium 1, in which the source of carbohydrate had first been replaced by glucose (10 g/L). The strains were then inoculated onto medium 2, incubated for 48 h, and then the optical density (E578), the pH, the formation of acetate and lactate and the decrease of the β-1,3-galactosyl isomalt concentration were determined.
Various decomposition paths are distinguished with regard to the metabolization of galactosyl isomalt. Some strains degrade galactose from the substrate with a β-galactosidase and metabolize this monosaccharide (+).
Other strains additionally degrade glucose from the resulting isomalt, in addition to galactose, metabolize both monosaccharides, while this is not true for the resulting mannitol or sorbitol (++). The third group is capable of utilizing galactosyl isomalt as a substrate and also metabolizing mannitol and sorbitol (+++).

## OCC1O[C@H](OC[C@@H](O)[C@@H](O)[C@H](O)C(O)CO)C(O)C(O[C@@H]2OC(CO)[C@H](O)C(O)C2O)[C@@H]1O (mixture of isomers) [β-1,3-Galactosyl isomalt, β-D-galactosyl-(1→3)-α-D-glucosyl-(1→6)-D-sorbitol(β-1,3-galactosyl-1,6-GPS) and β-D-galactosyl-(1→3)-α-D-glucosyl-(1→1)-D-mannitol(β-1,3-galactosyl-1,1-GPM)]
  Growth on β-1,3-galactosyl isomalt: +++
